Data: patent publication US20050053591A1, “Compositions and uses of motor protein-binding moieties” (Insert Therapeutics, Inc., priority 2002, published 2005)

What was measured:
[1] = system: PC3 cells; experiment: Dynein-mediated transport to the nuclear surface in cultured cells (fluorescence microscopy, FIG. 1); type: cell-based; settings: rhodamine-labeled GFP plasmid conjugated to peptide, formulated with CD-IPEI at 5+/-, 1 μg plasmid, 5 hours exposure
Method: PC3 cells were plated at 100,000 cells/mL in 6-well plates containing a clean glass coverslip at the bottom of each well one day before transfection. For transfection, 1 μg of plasmid was mixed with a linear, cyclodextrin polycation (CD-IPEI) at 5+/− and mixed with cells in 1 mL of Opti-MEM. Transfection solution was removed 5 hours after exposure and replaced with complete media. Cells were washed with PBS, fixed with formalin (0.5 mL for 10 minutes), and washed 3 times with PBS. The coverslips were then removed from the wells and mounted on glass slides with Prolong Antifade (Molecular Probes, Eugene, Oreg.).

[2] = biological target: FKBPs with a single amino acid substitution, Phe36Val (FV) (Homo sapiens, UniProt P62942, F37V); settings: FKBP Phe36Val (FV); cited from earlier work
[3] = biological target: wild-type FKBP (Homo sapiens, UniProt P62942); settings: wild-type FKBP versus FV; cited from earlier work
[4] = biological target: DLC8 (Homo sapiens, UniProt P63167); settings: nine-residue peptide from the Bim protein (Lo et al.); cited from earlier work
DLC8, sequence (P63167 whole entry, species assumed): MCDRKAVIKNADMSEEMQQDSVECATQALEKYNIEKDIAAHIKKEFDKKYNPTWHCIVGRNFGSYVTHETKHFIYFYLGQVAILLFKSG

wild-type FKBP, sequence (P62942 whole entry): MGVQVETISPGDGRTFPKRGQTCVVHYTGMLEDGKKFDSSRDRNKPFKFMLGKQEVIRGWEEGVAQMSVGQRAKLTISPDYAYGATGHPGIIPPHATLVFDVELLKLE
FKBPs with a single amino acid substitution, Phe36Val (FV), sequence (P62942 whole entry F37V): as the sequence (P62942 whole entry) above, with F37V counted along it

| Compound | transport of plasmid DNA toward the nucleus [1] | binding affinity [2] | lower affinity to the wild-type protein relative to Phe36Val FKBP [3] | DLC8 binding [4] |
| --- | --- | --- | --- | --- |
| CSYSKETQPL [dynein-binding peptide] | facilitates transport toward the nucleus |  |  |  |
| CC[C@H](C(=O)N1CCCC[C@H]1C(=O)O[C@H](CCc1ccc(OC)c(OC)c1)c1cccc(OCC(=O)NCC(CNC(=O)COc2cccc([C@@H](CCc3ccc(OC)c(OC)c3)OC(=O)[C@@H]3CCCCN3C(=O)[C@@H](CC)c3cc(OC)c(OC)c(OC)c3)c2)CN(C)C)c1)c1cc(OC)c(OC)c(OC)c1 [AP20187] |  | subnanomolar | 1000 fold |  |
| CC[C@H](C(=O)N1CCCC[C@H]1C(=O)O[C@H](CCc1ccc(OC)c(OC)c1)c1cccc(OCC(=O)NCCNC(=O)COc2cccc([C@@H](CCc3ccc(OC)c(OC)c3)OC(=O)[C@@H]3CCCCN3C(=O)[C@@H](CC)c3cc(OC)c(OC)c(OC)c3)c2)c1)c1cc(OC)c(OC)c(OC)c1 [AP1903] |  | subnanomolar | 1000 fold |  |
| MSCDKSTQT [nine-peptide from the Bim protein] |  |  |  | can bind DLC8 |
